ChEMBL document CHEMBL3612024, “Synthesis of five and six-membered heterocycles bearing an arylpiperazinylalkyl side chain as orally active antinociceptive agents” (2015)
Calls of active or inactive are those of the source. The calls are words filed in the database; no cut-off is given here.

Legend:
Conditions in all cases: Abdomen
Mus musculus [1] = assay: Antinociceptive activity in Swiss albino mouse assessed as inhibition of acetic acid-induced abdominal constriction at 10 mg/kg, po administered 30 mins prior to testing measured for 10 mins starting 5 mins after acetic acid injection relative to control; format: functional
Mus musculus [2] = assay: Antinociceptive activity in Swiss albino mouse assessed as inhibition of acetic acid-induced abdominal constriction at 20 mg/kg, po administered 30 mins prior to testing measured for 10 mins starting 5 mins after acetic acid injection relative to control; format: functional
Mus musculus [3] = assay: Antinociceptive activity in Swiss albino mouse assessed as inhibition of acetic acid-induced abdominal constriction at 40 mg/kg, po administered 30 mins prior to testing measured for 10 mins starting 5 mins after acetic acid injection relative to control; format: functional
Mus musculus [4] = assay: Antinociceptive activity in Swiss albino mouse assessed as inhibition of acetic acid-induced abdominal constriction at 20 mg/kg, po administered 30 mins prior to testing measured for 10 mins starting 5 mins after acetic acid injection in presence of alpha-2 adrenergic receptor antagonist yohimbine; format: functional, organism-based
Mus musculus [5] = assay: Antinociceptive activity in Swiss albino mouse assessed as inhibition of acetic acid-induced abdominal constriction at 30 mg/kg, po administered 30 mins prior to testing measured for 10 mins starting 5 mins after acetic acid injection relative to control; format: functional
Mus musculus [6] = assay: Antinociceptive activity in Swiss albino mouse assessed as inhibition of acetic acid-induced abdominal constriction at 30 mg/kg, po administered 30 mins prior to testing measured for 10 mins starting 5 mins after acetic acid injection in presence of alpha-2 adrenergic receptor antagonist yohimbine; format: functional, organism-based
Mus musculus [7] = assay: Antinociceptive activity in Swiss albino mouse assessed as inhibition of acetic acid-induced abdominal constriction at 40 mg/kg, po administered 30 mins prior to testing measured for 10 mins starting 5 mins after acetic acid injection in presence of alpha-2 adrenergic receptor antagonist yohimbine; format: functional, organism-based
Mus musculus [8] = assay: Antinociceptive activity in Swiss albino mouse assessed as inhibition of acetic acid-induced abdominal constriction at 80 mg/kg, po administered 30 mins prior to testing measured for 10 mins starting 5 mins after acetic acid injection relative to control; format: functional

| SMILES | inhibition in vivo at 10 mg/kg (Mus musculus [1]) [%] | inhibition in vivo at 20 mg/kg (Mus musculus [2]) [%] | inhibition in vivo at 40 mg/kg (Mus musculus [3]) [%] | inhibition (Mus musculus [4]) | inhibition in vivo at 30 mg/kg (Mus musculus [5]) [%] | inhibition (Mus musculus [6]) | inhibition (Mus musculus [7]) | inhibition (Mus musculus [1]) | inhibition (Mus musculus [5]) | inhibition in vivo at 80 mg/kg (Mus musculus [8]) [%] |
| --- | --- | --- | --- | --- | --- | --- | --- | --- | --- | --- |
| C/C=C/c1c(C)nn(CCCN2CCN(c3ccc(C)cc3)CC2)c(=O)c1N | 0 | 44 | 63 | inactive |  |  |  |  |  |  |
| CC(=O)c1cccn1CCCN1CCN(c2cccc(Cl)c2)CC1 | 3 | 41 | 54 | inactive |  |  |  |  |  |  |
| CC(=O)c1c(C)nn(CCCN2CCN(c3ccc(C)cc3)CC2)c(=O)c1N | 19 |  |  |  | 46 | inactive |  |  |  |  |
| CCC(=O)c1c(C)nn(CCCN2CCN(c3ccc(C)cc3)CC2)c(=O)c1N | 9 | 40 | 29 | inactive |  |  |  |  |  |  |
| CCCC(=O)c1c(C)nn(CCCN2CCN(c3ccc(C)cc3)CC2)c(=O)c1N | 0 | 25 | 32 | inactive |  |  |  |  |  |  |
| C=Cc1c(C)nn(CCCN2CCN(c3ccc(F)cc3)CC2)c(=O)c1N | 0 |  |  |  | 28 | inactive |  |  |  |  |
| CCC/C=C/c1c(C)nn(CCCN2CCN(c3ccc(C)cc3)CC2)c(=O)c1N | 0 | 16 | 36 |  |  |  | inactive |  |  |  |
| Cc1c(C#N)c(-c2ccccc2)nn1CCCN1CCN(c2ccc(F)cc2)CC1 | 9 | 28 | 51 |  |  |  | inactive |  |  |  |
| C=Cc1c(C)nn(CC(C)CN2CCN(c3ccc(C)cc3)CC2)c(=O)c1N (configuration not stated) | 17 |  |  |  | 47 | inactive |  |  |  |  |
| C=Cc1c(C)nn(CCCN2CCN(c3ccc(C)cc3)CC2)c(=O)c1N | 33 |  | 65 |  | 59 |  | inactive |  |  |  |
| Cc1ccc(N2CCN(CCCn3nc(-c4ccccc4)c(C#N)c3C)CC2)cc1 | 0 | 8 | 30 | inactive |  |  |  |  |  |  |
| C=Cc1c(CC)nn(CCCN2CCN(c3ccc(C)cc3)CC2)c(=O)c1N | 0 | 0 | 28 |  |  |  | inactive |  |  |  |
| COc1cccc(N2CCN(CCCn3cccc3C(C)=O)CC2)c1 | 0 | 26 | 52 |  |  |  | inactive |  |  |  |
| O=c1occ(-c2ccccc2)n1CCCN1CCN(c2cccc(Cl)c2)CC1 | 7 | 31 | 38 | inactive |  |  |  |  |  |  |
| C=Cc1c(C)nn(CCCN2CCN(C(=O)c3ccc(Cl)c(F)c3)CC2)c(=O)c1N |  |  |  |  |  |  |  | inactive | inactive |  |
| CCCCC(=O)c1c(C)nn(CCCN2CCN(c3ccc(C)cc3)CC2)c(=O)c1N | 8 | 23 | 15 | inactive |  |  |  |  |  |  |

| SMILES | inhibition in vivo at 10 mg/kg (Mus musculus [1]) [%] | inhibition in vivo at 20 mg/kg (Mus musculus [2]) [%] | inhibition in vivo at 40 mg/kg (Mus musculus [3]) [%] | inhibition (Mus musculus [4]) | inhibition in vivo at 30 mg/kg (Mus musculus [5]) [%] | inhibition (Mus musculus [6]) | inhibition (Mus musculus [7]) | inhibition (Mus musculus [1]) | inhibition (Mus musculus [5]) | inhibition in vivo at 80 mg/kg (Mus musculus [8]) [%] |
| --- | --- | --- | --- | --- | --- | --- | --- | --- | --- | --- |
| CC/C=C/c1c(C)nn(CCCN2CCN(c3ccc(C)cc3)CC2)c(=O)c1N | 5 | 35 | 45 | inactive |  |  |  |  |  |  |
| C=Cc1c(CCCC)nn(CCCN2CCN(c3ccc(C)cc3)CC2)c(=O)c1N | 0 | 41 | 48 | inactive |  |  |  |  |  |  |
| COc1cccc(N2CCN(CCCn3nc(-c4ccccc4)c(C#N)c3C)CC2)c1 | 0 | 21 | 34 | inactive |  |  |  |  |  |  |
| CCc1nn(CCCN2CCN(c3ccc(C)cc3)CC2)c(=O)c(N)c1C(C)=O | 10 | 42 | 41 | inactive |  |  |  |  |  |  |
| CC(=O)c1cccn1CCCN1CCN(c2ccc([N+](=O)[O-])cc2)CC1 |  | 11 | 0 |  |  |  |  |  |  | 9 |
| C=Cc1c(CCC)nn(CCCN2CCN(c3ccc(C)cc3)CC2)c(=O)c1N | 3 | 7 | 22 |  |  |  | inactive |  |  |  |
| CCc1c(C)nn(CCCN2CCN(c3ccc(C)cc3)CC2)c(=O)c1N | 23 |  |  |  | 45 | inactive |  |  |  |  |
| COc1cccc(N2CCN(CCCn3c(-c4ccccc4)coc3=O)CC2)c1 | 8 | 25 | 39 | inactive |  |  |  |  |  |  |
| O=c1occ(-c2ccccc2)n1CCCN1CCN(c2ccc(F)cc2)CC1 | 14 | 12 | 34 |  |  |  | inactive |  |  |  |
| Cc1c(C#N)c(-c2ccccc2)nn1CCCN1CCN(c2cccc(Cl)c2)CC1 |  | 0 | 23 |  |  |  | inactive |  |  |  |
| CC(=O)c1cccn1CCCN1CCN(c2ccc(C)cc2)CC1 | 12 | 7 | 9 |  |  |  |  |  |  | 4 |
| C=Cc1c(C)nn(CCCCN2CCN(c3ccccc3OCC)CC2)c(=O)c1N |  |  |  |  |  |  |  | inactive | inactive |  |
| CC(=O)c1cccn1CCCN1CCN(c2ccc(F)cc2)CC1 | 0 | 16 | 38 |  |  |  | inactive |  |  |  |
| Cc1c(C#N)c(-c2ccccc2)nn1CCCN1CCN(c2ccc([N+](=O)[O-])cc2)CC1 | 0 | 21 | 49 |  |  |  | inactive |  |  |  |
| C=Cc1c(C)nn(CCCN2CCCN(c3ccc(C)cc3)CC2)c(=O)c1N | 0 | 10 | 31 |  |  |  | inactive |  |  |  |
| C=Cc1c(C)nn(CCCCN2CCN(c3ccc(C)cc3)CC2)c(=O)c1N | 3 |  |  |  | 42 | inactive |  |  |  |  |
